ChEMBL document CHEMBL5352447, “Development of [1,2]oxazoloisoindoles tubulin polymerization inhibitors: Further chemical modifications and potential therapeutic effects against lymphomas” (Eur J Med Chem, 2022)

How the values were obtained:
HCT-116 = test: Antiproliferative activity against human HCT-116 cells assessed as cell growth inhibition incubated for 72 hrs by MTT assay; assay type: functional
[1] = Antiproliferative activity against human HBL1 cells assessed as inhibition of cell proliferation incubated for 72 hrs by MTT assay; assay type: functional, cell-based; details: HBL1, 72 h
786-0 = test: Antiproliferative activity against human 786-0 cells assessed as cell growth inhibition incubated for 72 hrs by MTT assay; assay type: functional
[2] = Antiproliferative activity against human HBL1 cells assessed as proliferating cells at 1 uM incubated for 72 hrs by MTT assay relative to control; assay type: functional
MOLT-4 = test: Antiproliferative activity against human MOLT-4 cells assessed as cell growth inhibition incubated for 72 hrs by MTT assay; assay type: functional
MCF7 = test: Cytotoxicity against human MCF7 cells assessed as cell growth inhibition; assay type: functional, cell-based
SF-539 = test: Antiproliferative activity against human SF-539 cells assessed as cell growth inhibition incubated for 72 hrs by MTT assay; assay type: functional
HOP-92 = test: Antiproliferative activity against human HOP-92 cells assessed as cell growth inhibition incubated for 72 hrs by MTT assay; assay type: functional
SK-MEL-28 = test: Antiproliferative activity against human SK-MEL-28 cells assessed as cell growth inhibition incubated for 72 hrs by MTT assay; assay type: functional
Tubulin (Homo sapiens) = Tubulin (Homo sapiens) (UniProt P68371+Q9H4B7+P0DPH7+P68366+Q13509+Q71U36+P04350+Q3ZCM7+P07437+P68363+Q9BQE3+Q6PEY2+Q13885+Q9BVA1+Q9BUF5); test: Inhibition of [3H]Colchicine binding to tubulin (unknown origin) at 5 uM relative to control; assay type: protein-complex assay
T47D = test: Antiproliferative activity against human T47D cells assessed as cell growth inhibition incubated for 72 hrs by MTT assay; assay type: functional
EKVX = test: Antiproliferative activity against human EKVX cells assessed as cell growth inhibition incubated for 72 hrs by MTT assay; assay type: functional
SK-OV-3 = test: Antiproliferative activity against human SK-OV-3 cells assessed as cell growth inhibition incubated for 72 hrs by MTT assay; assay type: functional
HL-60(TB) = test: Antiproliferative activity against human HL-60(TB) cells assessed as cell growth inhibition incubated for 72 hrs by MTT assay; assay type: functional
RPMI-8226 = test: Antiproliferative activity against human RPMI-8226 cells assessed as cell growth inhibition incubated for 72 hrs by MTT assay; assay type: functional
PC-3 = test: Antiproliferative activity against human PC-3 cells assessed as cell growth inhibition incubated for 72 hrs by MTT assay; assay type: functional
CAKI-1 = test: Antiproliferative activity against human CAKI-1 cells assessed as cell growth inhibition incubated for 72 hrs by MTT assay; assay type: functional
Tubulin = test: Inhibition of tubulin assembly (unknown origin); assay type: protein-complex assay, Homo sapiens
SK-MEL-2 = test: Antiproliferative activity against human SK-MEL-2 cells assessed as cell growth inhibition incubated for 72 hrs by MTT assay; assay type: functional
ACHN = test: Antiproliferative activity against human ACHN cells assessed as cell growth inhibition incubated for 72 hrs by MTT assay; assay type: functional
UO-31 = test: Antiproliferative activity against human UO-31 cells assessed as cell growth inhibition incubated for 72 hrs by MTT assay; assay type: functional
K562 = test: Antiproliferative activity against human K562 cells assessed as cell growth inhibition incubated for 72 hrs by MTT assay; assay type: functional
NCI-H322M = test: Antiproliferative activity against human NCI-H322M cells assessed as cell growth inhibition incubated for 72 hrs by MTT assay; assay type: functional
OVCAR-3 = test: Antiproliferative activity against human OVCAR-3 cells assessed as cell growth inhibition incubated for 72 hrs by MTT assay; assay type: functional

COc1ccc(Cn2cc3c(c2-c2cc(OC)c(OC)c(OC)c2)CCc2c(CN4CCOCC4)noc2-3)cc1
GI50 (HCT-116): 500 nM
IC50 [1]: 500 nM
GI50 (786-0): 770 nM
Activity [2]: 33.9%
GI50 (MOLT-4): 3060 nM
IC50 (MCF7): 470 nM
GI50 (SF-539): 440 nM
GI50 (HOP-92): 900 nM
GI50 (SK-MEL-28): > 100 µM
inhibition (Tubulin (Homo sapiens)): 33%
GI50 (T47D): > 100 µM
GI50 (EKVX): 1400 nM
GI50 (SK-OV-3): 0.97 µM
GI50 (HL-60(TB)): 390 nM
GI50 (RPMI-8226): 770 nM
GI50 (PC-3): 650 nM
GI50 (CAKI-1): 380 nM
IC50 (Tubulin): 1000 nM
GI50 (SK-MEL-2): 550 nM
GI50 (ACHN): 630 nM
GI50 (UO-31): 760 nM
GI50 (K562): 430 nM

CCOC(=O)c1noc2c1CCc1c-2cn(Cc2ccc(OC)cc2)c1-c1cc(OC)c(OC)c(OC)c1
GI50 (HCT-116): 400 nM
IC50 [1]: 1700 nM
GI50 (786-0): 3650 nM
Activity [2]: 70.1%
GI50 (MOLT-4): 2700 nM
GI50 (SF-539): 1840 nM
GI50 (HOP-92): 2720 nM
GI50 (SK-MEL-28): 1.9 µM
GI50 (T47D): > 100 µM
GI50 (EKVX): 3920 nM
GI50 (SK-OV-3): 5.23 µM
GI50 (HL-60(TB)): 450 nM
GI50 (RPMI-8226): 2850 nM
GI50 (PC-3): 2900 nM
GI50 (NCI-H322M): 5.46 µM
GI50 (OVCAR-3): 370 nM
GI50 (SK-MEL-2): 4290 nM
GI50 (ACHN): 3510 nM
GI50 (UO-31): 3440 nM

COc1ccc(Cn2cc3c(c2-c2cc(OC)c(OC)c(OC)c2)CCc2c(CO)noc2-3)cc1
GI50 (HCT-116): 270 nM
IC50 [1]: 1700 nM
GI50 (786-0): 360 nM
Activity [2]: 80.3%
GI50 (MOLT-4): 440 nM
GI50 (SF-539): 230 nM
GI50 (HOP-92): 3390 nM
GI50 (SK-MEL-28): 3.6 µM
GI50 (EKVX): 510 nM
GI50 (SK-OV-3): 0.37 µM
GI50 (HL-60(TB)): 210 nM
GI50 (RPMI-8226): 420 nM
GI50 (PC-3): 270 nM
GI50 (NCI-H322M): 0.64 µM
GI50 (OVCAR-3): 220 nM
GI50 (SK-MEL-2): 460 nM
GI50 (ACHN): 620 nM
GI50 (UO-31): 580 nM

COc1ccc(Cn2cc3c(c2-c2cc(OC)c(OC)c(OC)c2)CCc2c(CN4CCCC4)noc2-3)cc1
GI50 (HCT-116): 470 nM
IC50 [1]: 600 nM
GI50 (786-0): 1000 nM
Activity [2]: 30.6%
GI50 (MOLT-4): 1470 nM
IC50 (MCF7): 1100 nM
GI50 (SF-539): 750 nM
GI50 (HOP-92): 1350 nM
GI50 (SK-MEL-28): 11.5 µM
inhibition (Tubulin (Homo sapiens)): 24%
GI50 (T47D): 2.65 µM
GI50 (EKVX): 2110 nM
GI50 (SK-OV-3): 6.7 µM
GI50 (HL-60(TB)): 320 nM
GI50 (RPMI-8226): 1270 nM
GI50 (PC-3): 640 nM
GI50 (CAKI-1): 450 nM
GI50 (NCI-H322M): 5.55 µM
IC50 (Tubulin): 2800 nM
GI50 (SK-MEL-2): 13200 nM
GI50 (ACHN): 630 nM
GI50 (UO-31): 1160 nM
GI50 (K562): 350 nM
